Data from patent publication US6365215B1, “Oral sensory perception-affecting compositions containing dimethyl sulfoxide, complexes thereof and salts thereof” (International Flavors & Fragrances Inc., priority 2000, dated 2002).

What was measured:
[1] = Comparison of perceived cooling: second compound plus dimethyl sulfoxide vs. second compound alone (Table I); format: in vivo; conditions: scale 0-10
Description: is admixed with such “second compound(s),” the resulting mixture as stated, supra, has a highly intensified oral sensory perception effect, for example, a “highly intensified cooling effect” or a “highly intensified hot, burning effect.” Such effects are highly desirable in the use of certain oral care products such as mouthwashes, toothpastes and the like as set forth, supra. Thus, the following Table I sets forth a comparison of a “control” which is a “second compound” taken alone vs. the mixture of dimethyl sulfoxide with the said “second compound”: […]

[2] = Perceived cooling in screening base: silica toothpaste base with 0.4% saccharin (Table II); format: in vivo
Description: The following Table II sets forth the effect in a screening base, in this case: silica toothpaste base containing 0.4% saccharin of various “second compounds” in admixture with dimethyl sulfoxide, as follows: […]

[3] = second compound 30 ppm + DMSO 0.1 ppm
[4] = second compound 30 ppm + DMSO 100 ppm
[5] = second compound alone 30 ppm (control for DMSO 0.1 ppm line)
[6] = second compound alone 30 ppm (control for DMSO 100 ppm line)
[7] = scaled 1-10, 2nd compound 30 ppm + DMSO 0.1 ppm
[8] = scaled 1-10, 2nd compound 30 ppm + DMSO 1 ppm
[9] = scaled 1-10, 2nd compound alone 30 ppm (line of DMSO 0.1 ppm)
[10] = scaled 1-10, 2nd compound alone 30 ppm (line of DMSO 1 ppm)

SMILES | Effect of Mixture vs. Control, perceived cooling: mixture [1, 3] | Effect of Mixture vs. Control, perceived cooling: mixture [1, 4] | Effect of Mixture vs. Control, perceived cooling: control [1, 5] | Effect of Mixture vs. Control, perceived cooling: control [1, 6] | Observed Effect Scaled at 1-10 vs. 2nd Compound Alone, perceived cooling: with DMSO [2, 7] | Observed Effect Scaled at 1-10 vs. 2nd Compound Alone, perceived cooling: with DMSO [2, 8] | Observed Effect Scaled at 1-10 vs. 2nd Compound Alone, perceived cooling: 2nd compound alone [2, 9] | Observed Effect Scaled at 1-10 vs. 2nd Compound Alone, perceived cooling: 2nd compound alone [2, 10] | further results
CC1CCC(C(C)C)C(O)C1 (centres unmarked) [Menthol, menthol] | – | – | – | – | – | – | – | – | Effect of Mixture vs. Control, perceived cooling: mixture ([1]; second compound 5 ppm + DMSO 0.1 ppm): 8; Effect of Mixture vs. Control, perceived cooling: mixture ([1]; second compound 10 ppm + DMSO 1 ppm): 9; Effect of Mixture vs. Control, perceived cooling: mixture ([1]; second compound 30 ppm + DMSO 5 ppm): 9.5; Effect of Mixture vs. Control, perceived cooling: mixture ([1]; second compound 100 ppm + DMSO 10 ppm): 8.7; Effect of Mixture vs. Control, perceived cooling: control ([1]; second compound alone 5 ppm (control for DMSO 0.1 ppm line)): 1.5; Effect of Mixture vs. Control, perceived cooling: control ([1]; second compound alone 10 ppm (control for DMSO 1 ppm line)): 1.3; Effect of Mixture vs. Control, perceived cooling: control ([1]; second compound alone 30 ppm (control for DMSO 5 ppm line)): 1.1; Effect of Mixture vs. Control, perceived cooling: control ([1]; second compound alone 100 ppm (control for DMSO 10 ppm line)): 2; Observed Effect Scaled at 1-10 vs. 2nd Compound Alone, perceived cooling: with DMSO ([2]; scaled 1-10, 2nd compound 0.50% + DMSO 1 ppm): 8.2; Observed Effect Scaled at 1-10 vs. 2nd Compound Alone, perceived cooling: 2nd compound alone ([2]; scaled 1-10, 2nd compound alone 0.50% (line of DMSO 1 ppm)): 1.6
CCNC(=O)C1CC(C)CCC1C(C)C (centres unmarked) [WS 3 ®] | 9.3 | 9.0 | 1.5 | 1.6 | 9.1 | 9.0 | 1.7 | 1.6 | –
CC1CCC(C(C)C)C(OC(=O)C(C)O)C1 (centres unmarked) [Menthyl lactate] | 8.4 | 8.2 | 1.7 | 2.1 | – | – | – | – | –
CCC(C)C(C(=O)NC(C)C)C(C)C (centres unmarked) [WS 23 ®] | 9.6 | 9.2 | 2.4 | 2.2 | 9.8 | 9.9 | 2.4 | 2.6 | –
CC1CCC(C(C)C)C(OC(=O)CCC(=O)O)C1 (centres unmarked) [Monomenthyl succinate, menthyl succinate] | – | – | – | – | – | – | – | – | Effect of Mixture vs. Control, perceived cooling: mixture ([1]; second compound 100 ppm + DMSO 0.1 ppm): 9.1; Effect of Mixture vs. Control, perceived cooling: mixture ([1]; second compound 100 ppm + DMSO 100 ppm): 8.7; Effect of Mixture vs. Control, perceived cooling: control ([1]; second compound alone 100 ppm (control for DMSO 0.1 ppm line)): 3.8; Effect of Mixture vs. Control, perceived cooling: control ([1]; second compound alone 100 ppm (control for DMSO 100 ppm line)): 2.5; Observed Effect Scaled at 1-10 vs. 2nd Compound Alone, perceived cooling: with DMSO ([2]; scaled 1-10, 2nd compound 100 ppm + DMSO 0.1 ppm): 9.0; Observed Effect Scaled at 1-10 vs. 2nd Compound Alone, perceived cooling: with DMSO ([2]; scaled 1-10, 2nd compound 100 ppm + DMSO 1 ppm): 9.2; Observed Effect Scaled at 1-10 vs. 2nd Compound Alone, perceived cooling: 2nd compound alone ([2]; scaled 1-10, 2nd compound alone 100 ppm (line of DMSO 0.1 ppm)): 3.5; Observed Effect Scaled at 1-10 vs. 2nd Compound Alone, perceived cooling: 2nd compound alone ([2]; scaled 1-10, 2nd compound alone 100 ppm (line of DMSO 1 ppm)): 3.7
